Data on ten molecules can be found in patent US12371436B2, “Substituted benzodiazoliums as ENaC inhibitors” (ENTERPRISE THERAPEUTICS LIMITED, priority 2016, dated 2025).

One data set has as its target T1, ENaC (Homo sapiens, UniProt P37088+P51168+P51170).
T1 construct: host or cells: primary human bronchial epithelial cells (HBECs) differentiated at air-liquid interface
T1 sequence (P37088 1-669): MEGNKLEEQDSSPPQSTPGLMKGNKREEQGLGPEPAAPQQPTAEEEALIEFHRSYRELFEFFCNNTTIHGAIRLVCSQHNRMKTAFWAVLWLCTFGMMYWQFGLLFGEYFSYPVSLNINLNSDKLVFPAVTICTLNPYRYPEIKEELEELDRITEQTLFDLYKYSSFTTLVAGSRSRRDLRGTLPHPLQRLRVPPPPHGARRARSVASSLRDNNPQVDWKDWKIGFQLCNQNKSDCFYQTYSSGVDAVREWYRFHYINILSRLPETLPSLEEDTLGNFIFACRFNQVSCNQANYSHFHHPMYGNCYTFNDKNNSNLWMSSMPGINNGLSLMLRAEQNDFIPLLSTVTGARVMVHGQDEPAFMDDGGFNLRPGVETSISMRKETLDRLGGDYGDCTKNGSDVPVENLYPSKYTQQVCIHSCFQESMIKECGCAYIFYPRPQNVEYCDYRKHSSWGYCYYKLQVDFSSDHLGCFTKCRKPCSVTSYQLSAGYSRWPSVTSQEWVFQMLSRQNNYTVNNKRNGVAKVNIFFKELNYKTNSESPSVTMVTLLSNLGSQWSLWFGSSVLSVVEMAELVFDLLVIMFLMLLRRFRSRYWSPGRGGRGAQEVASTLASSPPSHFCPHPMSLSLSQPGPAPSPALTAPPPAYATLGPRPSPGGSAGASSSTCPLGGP
T1 sequence (P51168 1-640): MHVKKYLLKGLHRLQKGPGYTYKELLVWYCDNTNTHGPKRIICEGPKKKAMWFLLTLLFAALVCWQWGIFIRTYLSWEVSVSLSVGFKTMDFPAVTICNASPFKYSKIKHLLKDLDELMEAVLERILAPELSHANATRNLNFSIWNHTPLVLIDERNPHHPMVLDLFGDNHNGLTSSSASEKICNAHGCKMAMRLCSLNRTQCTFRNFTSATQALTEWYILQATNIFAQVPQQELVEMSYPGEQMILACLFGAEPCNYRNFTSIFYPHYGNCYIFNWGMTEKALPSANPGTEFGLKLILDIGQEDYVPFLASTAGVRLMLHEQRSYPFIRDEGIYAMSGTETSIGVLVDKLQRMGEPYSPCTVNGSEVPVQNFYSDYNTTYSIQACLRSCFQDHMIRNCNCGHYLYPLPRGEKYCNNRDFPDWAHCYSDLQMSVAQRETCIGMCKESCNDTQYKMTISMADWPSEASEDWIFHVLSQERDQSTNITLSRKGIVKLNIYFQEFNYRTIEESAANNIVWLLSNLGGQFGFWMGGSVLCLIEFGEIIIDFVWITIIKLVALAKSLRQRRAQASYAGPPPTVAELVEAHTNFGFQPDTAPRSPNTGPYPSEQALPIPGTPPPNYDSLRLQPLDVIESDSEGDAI
T1 sequence (P51170 1-649): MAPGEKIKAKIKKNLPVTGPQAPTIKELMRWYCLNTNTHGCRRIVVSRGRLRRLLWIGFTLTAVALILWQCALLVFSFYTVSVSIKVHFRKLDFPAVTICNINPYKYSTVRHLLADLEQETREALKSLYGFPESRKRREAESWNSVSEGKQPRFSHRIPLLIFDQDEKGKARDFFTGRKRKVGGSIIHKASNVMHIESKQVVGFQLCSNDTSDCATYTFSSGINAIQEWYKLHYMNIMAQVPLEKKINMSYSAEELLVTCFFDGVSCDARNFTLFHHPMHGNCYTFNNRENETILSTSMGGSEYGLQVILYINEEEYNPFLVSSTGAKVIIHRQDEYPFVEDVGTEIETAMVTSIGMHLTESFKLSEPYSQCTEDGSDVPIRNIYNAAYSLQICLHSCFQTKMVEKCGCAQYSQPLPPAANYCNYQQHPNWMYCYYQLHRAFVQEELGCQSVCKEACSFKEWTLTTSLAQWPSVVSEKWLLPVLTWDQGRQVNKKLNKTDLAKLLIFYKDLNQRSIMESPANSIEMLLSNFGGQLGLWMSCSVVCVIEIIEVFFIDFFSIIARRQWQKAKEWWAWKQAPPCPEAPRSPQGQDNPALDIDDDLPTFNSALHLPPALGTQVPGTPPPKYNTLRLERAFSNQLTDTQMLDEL
Put plainly: Short circuit current assay to determine ENaC blocker potency in human bronchial epithelial cells. The class given is cell-based. The following applies: 50% inhibition of total amiloride-sensitive ISC, apical addition, read-out: Averages.ENaC IC50 (nM) Avg. Summed up:
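Primary human bronchial epithelial cells at air-liquid interface (days 14–21) were voltage-clamped at 0 mV in Ussing chambers (Ringer, pH 7.4, 37° C.). Compounds were added apically as cumulative concentrations, then 10 μM amiloride. IC50 was taken as 50% inhibition of amiloride-sensitive ISC.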

Data set [1] in a line: Bronchoalveolar lavage (BAL) procedure: compound levels after intratracheal administration. The conditions noted are these: bronchoalveolar lavage fluid (BAL), other: intratracheal, 0.1 mg/kg, rat, 0.1 mg/mL solution in 5% dextrose, 1 mL/Kg, BAL 6 hours after administration, LC/MS/MS. Type of data set: in vivo. As to the method: Example 69—Bronchoalveolar Lavage (BAL) Procedure A 0.1 mg/mL solution of ENaC inhibitor in 5% dextrose was administered intratracheally to a rat weighing 225-250 g. A volume of 1 mL/Kg was used. After 6 hours, lungs were lavaged with 3×4 mL of sterile saline. A 1 mL aliquot was subsequently snap frozen. Lungs were excised, weighed and snap frozen. Compound levels in the BAL and lung tissue were subsequently determined using LC/MS/MS bioanalysis.

Take `CCn1c(CNC(=O)c2nc3cc[nH]c3nc2N)[n+](CC)c2ccc(C(=O)N3CC[C@H](N(C[C@H](O)[C@@H](O)[C@H](O)[C@H](O)CO)C[C@H](O)[C@@H](O)[C@H](O)[C@H](O)CO)C3)cc21` [Example 54, 2-[({3-amino-5H-pyrrolo[2,3-b]pyrazin-2-yl}formamido)methyl]-6-[(3S)-3-{bis[(2S,3R,4R,5R)-2,3,4,5,6-pentahydroxyhexyl]amino}pyrrolidine-1-carbonyl]-1,3-diethyl-1H-1,3-benzodiazol-3-ium]: on ENaC, the IC50 is 49 nM. Also, the concentration at 6 h in data set [1] came to 139 ng/mL.
In the case of `CCn1c(CNC(=O)c2nc3cc[nH]c3nc2N)[n+](CC)c2ccc(C(=O)NCC[C@H](NCCCN(C[C@H](O)[C@@H](O)[C@H](O)[C@H](O)CO)C[C@H](O)[C@@H](O)[C@H](O)[C@H](O)CO)C(N)=O)cc21` [Example 61, 2-[({3-amino-5H-pyrrolo[2,3-b]pyrazin-2-yl}formamido)methyl]-6-{[(3S)-3-[(3-{bis[(2S,3R,4R,5R)-2,3,4,5,6-pentahydroxyhexyl]amino}propyl)amino]-3-carbamoylpropyl]carbamoyl}-1,3-diethyl-1H-1,3-benzodiazol-3-ium], on ENaC, the IC50 was 43 nM. The molecule also returned a concentration at 6 h in data set [1] of 167 ng/mL.
For `CCn1c(CNC(=O)c2nc3cc[nH]c3nc2N)[n+](CC)c2ccc(C(=O)N[C@H]3CC[C@@H](N(C[C@H](O)[C@@H](O)[C@H](O)[C@H](O)CO)C[C@H](O)[C@@H](O)[C@H](O)[C@H](O)CO)CC3)cc21` [Example 56, 2-[({3-amino-5H-pyrrolo[2,3-b]pyrazin-2-yl}formamido)methyl]-1,3-diethyl-6-{[(1s,4s)-4-{bis[(2S,3R,4R,5R)-2,3,4,5,6-pentahydroxyhexyl]amino}cyclohexyl]carbamoyl}-1H-1,3-benzodiazol-3-ium] the same measures were 15 nM and 283 ng/mL.
As to `CCn1c(CNC(=O)c2nc3cc[nH]c3nc2N)[n+](CC)c2ccc(C(=O)NCCOCCOCCOCCN(C[C@H](O)[C@@H](O)[C@H](O)[C@H](O)CO)C[C@H](O)[C@@H](O)[C@H](O)[C@H](O)CO)cc21` [Example 59, 2-[({3-amino-5H-pyrrolo[2,3-b]pyrazin-2-yl}formamido)methyl]-1,3-diethyl-5-{[(14S,15R,16R,17R)-14,15,16,17,18-pentahydroxy-12-[(2S,3R,4R,5R)-2,3,4,5,6-pentahydroxyhexyl]-3,6,9-trioxa-12-azaoctadecan-1-yl]carbamoyl}-1H-1,3-benzodiazol-3-ium], the IC50 on ENaC worked out at 171 nM. Also, the concentration at 6 h in data set [1] came to 197 ng/mL.
Regarding `CCn1c(CNC(=O)c2nc3cc[nH]c3nc2N)[n+](CC)c2ccc(C(=O)N[C@H]3CC[C@H](N(C[C@H](O)[C@@H](O)[C@H](O)[C@H](O)CO)C[C@H](O)[C@@H](O)[C@H](O)[C@H](O)CO)CC3)cc21` [Example 55, 2-[({3-amino-5H-pyrrolo[2,3-b]pyrazin-2-yl}formamido)methyl]-1,3-diethyl-6-{[(1r,4r)-4-{bis[(2S,3R,4R,5R)-2,3,4,5,6-pentahydroxyhexyl]amino}cyclohexyl]carbamoyl}-1H-1,3-benzodiazol-3-ium], the IC50 at ENaC was found to be 78 nM. Besides, the concentration at 6 h in data set [1] was determined as 284 ng/mL.
The corresponding values for `CCn1c(CNC(=O)c2nc3cc[nH]c3nc2N)[n+](CC)c2ccc(C(=O)N(C)CCCN(C[C@H](O)[C@@H](O)[C@H](O)[C@H](O)CO)C[C@H](O)[C@@H](O)[C@H](O)[C@H](O)CO)cc21` [Example 57, 2-[({3-amino-5H-pyrrolo[2,3-b]pyrazin-2-yl}formamido)methyl]-6-[(3-{bis[(2S,3R,4R,5R)-2,3,4,5,6-pentahydroxyhexyl]amino}propyl)(methyl)carbamoyl]-1,3-diethyl-1H-1,3-benzodiazol-3-ium] are 36 nM and 283 ng/mL.
Take `CCn1c(CNC(=O)c2nc3cc[nH]c3nc2N)[n+](CC)c2ccc(C(=O)NCCCCc3ccc(CCC(NCCCN(C[C@H](O)[C@@H](O)[C@H](O)[C@H](O)CO)C[C@H](O)[C@@H](O)[C@H](O)[C@H](O)CO)C(N)=O)cc3)cc21` (stereo partly drawn) [Example 62, 2-[({3-amino-5H-pyrrolo[2,3-b]pyrazin-2-yl}formamido)methyl]-6-{[4-(4-{3-[(3-{bis[(2S,3R,4R,5R)-2,3,4,5,6-pentahydroxyhexyl]amino}propyl)amino]-3-carbamoylpropyl}phenyl)butyl]carbamoyl}-1,3-diethyl-1H-1,3-benzodiazol-3-ium]: on ENaC, the IC50 was 24 nM. Besides, the concentration at 6 h in data set [1] worked out at 140 ng/mL.
The corresponding values for `CCn1c(CNC(=O)c2nc3cc[nH]c3nc2N)[n+](CC)c2ccc(C(=O)N3CCC(N(C[C@H](O)[C@@H](O)[C@H](O)[C@H](O)CO)C[C@H](O)[C@@H](O)[C@H](O)[C@H](O)CO)CC3)cc21` [Example 50, 2-[({3-amino-5H-pyrrolo[2,3-b]pyrazin-2-yl}formamido)methyl]-6-(4-{bis[(2S,3R,4R,5R)-2,3,4,5,6-pentahydroxyhexyl]amino}piperidine-1-carbonyl)-1,3-diethyl-1H-1,3-benzodiazol-3-ium] are 35 nM and 260 ng/mL.
Consider `CCn1c(CNC(=O)c2nc3cc[nH]c3nc2N)[n+](CC)c2ccc(C(=O)NCCc3ccc(-c4ccc(CCN(C[C@H](O)[C@@H](O)[C@H](O)[C@H](O)CO)C[C@H](O)[C@@H](O)[C@H](O)[C@H](O)CO)cc4)cc3)cc21` [Example 60, 2-[({3-amino-5H-pyrrolo[2,3-b]pyrazin-2-yl}formamido)methyl]-6-({2-[4′-(2-{bis[(2S,3R,4R,5R)-2,3,4,5,6-pentahydroxyhexyl]amino}ethyl)-[1,1′-biphenyl]-4-yl]ethyl}carbamoyl)-1,3-diethyl-1H-1,3-benzodiazol-3-ium], for which the IC50 at ENaC worked out at 22 nM. Moreover, the concentration at 6 h in data set [1] turned out to be 176 ng/mL.
With `CCn1c(CNC(=O)c2nc3cc[nH]c3nc2N)[n+](CC)c2ccc(C(=O)NCCN(C[C@H](O)[C@@H](O)[C@H](O)[C@H](O)CO)C[C@H](O)[C@@H](O)[C@H](O)[C@H](O)CO)cc21` [Example 58, 2-[({3-amino-5H-pyrrolo[2,3-b]pyrazin-2-yl}formamido)methyl]-6-[(2-{bis[(2S,3R,4R,5R)-2,3,4,5,6-pentahydroxyhexyl]amino}ethyl)carbamoyl]-1,3-diethyl-1H-1,3-benzodiazol-3-ium], at ENaC, the IC50 stood at 78 nM. For the same molecule, the concentration at 6 h in data set [1] came out at 256 ng/mL.
